Laboratory results from PubChem BioAssay (NCI).
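Cells were grown in 96-well plates and exposed to each compound for 48 hours at five concentrations; endpoints were interpolated linearly between bracketing concentrations, or set to the highest concentration if not reached. TGI is the concentration that stops growth completely.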

Experiments:
Experiment in all cases: NCI anticancer screen, dose series, 48 h
HCT-15 colon = tested on: HCT-15 colon
SK-OV-3 ovarian = tested on: SK-OV-3 ovarian
UACC-62 melanoma = tested on: UACC-62 melanoma
SW-620 colon = tested on: SW-620 colon
OVCAR-4 ovarian = tested on: OVCAR-4 ovarian
HCC-2998 colon = tested on: HCC-2998 colon
IGROV1 ovarian = tested on: IGROV1 ovarian
SK-MEL-2 melanoma = tested on: SK-MEL-2 melanoma
OVCAR-8 ovarian = tested on: OVCAR-8 ovarian
HT29 colon = tested on: HT29 colon
UO-31 renal = tested on: UO-31 renal
CAKI-1 renal = tested on: CAKI-1 renal
MDA-MB-231 breast = tested on: MDA-MB-231 breast
NCI/ADR-RES ovarian = tested on: NCI/ADR-RES ovarian
U251 CNS = tested on: U251 CNS
SK-MEL-5 melanoma = tested on: SK-MEL-5 melanoma
786-0 renal = tested on: 786-0 renal
A549 NSCLC = tested on: A549 NSCLC
BT-549 breast = tested on: BT-549 breast
HL-60(TB) leukemia = tested on: HL-60(TB) leukemia
PC-3 prostate = tested on: PC-3 prostate
RPMI-8226 leukemia = tested on: RPMI-8226 leukemia
EKVX NSCLC = tested on: EKVX NSCLC
LOX IMVI melanoma = tested on: LOX IMVI melanoma
TK-10 renal = tested on: TK-10 renal
T-47D breast = tested on: T-47D breast
MDA-MB-435 = tested on: MDA-MB-435
HS 578T breast = tested on: HS 578T breast
SF-268 CNS = tested on: SF-268 CNS
OVCAR-3 ovarian = tested on: OVCAR-3 ovarian
SF-295 CNS = tested on: SF-295 CNS
SK-MEL-28 melanoma = tested on: SK-MEL-28 melanoma
SNB-75 CNS = tested on: SNB-75 CNS
MDA-N = tested on: MDA-N
DU-145 prostate = tested on: DU-145 prostate
MOLT-4 leukemia = tested on: MOLT-4 leukemia
COLO 205 colon = tested on: COLO 205 colon
ACHN renal = tested on: ACHN renal
HOP-62 NSCLC = tested on: HOP-62 NSCLC
SF-539 CNS = tested on: SF-539 CNS
K-562 leukemia = tested on: K-562 leukemia
NCI-H23 lung = tested on: NCI-H23 lung
MCF7 breast = tested on: MCF7 breast
M14 melanoma = tested on: M14 melanoma
KM12 colon = tested on: KM12 colon
UACC-257 melanoma = tested on: UACC-257 melanoma
MALME-3M melanoma = tested on: MALME-3M melanoma
OVCAR-5 ovarian = tested on: OVCAR-5 ovarian
A498 renal = tested on: A498 renal
NCI-H522 lung = tested on: NCI-H522 lung
HCT-116 colon = tested on: HCT-116 colon
CCRF-CEM leukemia = tested on: CCRF-CEM leukemia
SR leukemia = tested on: SR leukemia
SN12C renal = tested on: SN12C renal
NCI-H226 lung = tested on: NCI-H226 lung
NCI-H460 lung = tested on: NCI-H460 lung
SNB-19 CNS = tested on: SNB-19 CNS
RXF 393 renal = tested on: RXF 393 renal

COC(=O)C1(OC(=O)Sc2ccccc2)CCN(C)CC1
TGI (HCT-15 colon): > 63.1 µM
TGI (SK-OV-3 ovarian): > 69.1 µM
TGI (UACC-62 melanoma): > 64.7 µM
TGI (SW-620 colon): 54.9 µM
TGI (OVCAR-4 ovarian): > 100 µM
TGI (HCC-2998 colon): > 73 µM
TGI (IGROV1 ovarian): 18.7 µM
TGI (SK-MEL-2 melanoma): > 100 µM
TGI (OVCAR-8 ovarian): 52.7 µM
TGI (HT29 colon): 58 µM
TGI (UO-31 renal): 20.8 µM
TGI (CAKI-1 renal): 27.8 µM
TGI (MDA-MB-231 breast): 59 µM
TGI (NCI/ADR-RES ovarian): > 48.4 µM
TGI (U251 CNS): 40.6 µM
TGI (SK-MEL-5 melanoma): > 70.4 µM
TGI (786-0 renal): 50.3 µM
TGI (A549 NSCLC): > 100 µM
TGI (BT-549 breast): 7.04 µM
TGI (HL-60(TB) leukemia): 24 µM
TGI (PC-3 prostate): > 83.5 µM
TGI (RPMI-8226 leukemia): 35 µM
TGI (EKVX NSCLC): > 84.6 µM
TGI (LOX IMVI melanoma): 28.4 µM
TGI (TK-10 renal): > 75.6 µM
TGI (T-47D breast): > 100 µM
TGI (MDA-MB-435): 36.3 µM
TGI (HS 578T breast): 70.9 µM
TGI (SF-268 CNS): 62 µM
TGI (OVCAR-3 ovarian): > 45.3 µM
TGI (SF-295 CNS): > 59.5 µM
TGI (SK-MEL-28 melanoma): > 100 µM
TGI (SNB-75 CNS): 40.1 µM
TGI (MDA-N): 49.4 µM
TGI (DU-145 prostate): > 100 µM
TGI (MOLT-4 leukemia): > 39.8 µM
TGI (COLO 205 colon): 29.8 µM
TGI (ACHN renal): > 54.1 µM
TGI (HOP-62 NSCLC): > 66.6 µM
TGI (SF-539 CNS): 26.5 µM
TGI (K-562 leukemia): 61.1 µM
TGI (NCI-H23 lung): 50.2 µM
TGI (MCF7 breast): > 100 µM
TGI (M14 melanoma): > 58.6 µM
TGI (KM12 colon): > 47.4 µM
TGI (UACC-257 melanoma): 56.6 µM
TGI (MALME-3M melanoma): > 100 µM
TGI (OVCAR-5 ovarian): > 69.6 µM
TGI (A498 renal): 45.8 µM
TGI (NCI-H522 lung): 35.1 µM
TGI (HCT-116 colon): 53.6 µM
TGI (CCRF-CEM leukemia): 19.7 µM
TGI (SR leukemia): 35.7 µM
TGI (SN12C renal): 21.3 µM
TGI (NCI-H226 lung): 35.7 µM
TGI (NCI-H460 lung): 58.1 µM
TGI (SNB-19 CNS): > 100 µM
TGI (RXF 393 renal): 34.9 µM
